From US8937167B2 (Washington University, priority 2009, dated 2015) come the findings set out here.

Some results are limits rather than exact numbers.

One data set relates to PBC-1. Briefly: Growth curve / MIC determination in LB. To be noted: 100 μM mannoside, varying TMP-SMZ. Type of data set: cell-based, E. coli (UPEC). As to the method: Growth curve. […] Mannoside ZFH-2056 was added at 100 μM. Growth curves were performed in a 96-well plate at 37° C. with A600 readings taken every 30 min for 8 h.
Mannoside 6 was added at 100 μM. Growth curves were performed in a 96-well plate at 37° C. with A600 readings taken every 30 min for 8 h. Minimum inhibitory concentration (MIC) was calculated as the lowest concentration of antibiotic that prevented growth of the bacterial strain.

Another data set relates to UTI89. Briefly: Mouse UTI model, bladder bacterial titers (CFU). The class given is in vivo, E. coli (UPEC); host C3H/HeN mouse. The following applies: UTI89; 6 hpi; mannoside IP 30 min prior and/or TMP-SMZ 3 days in drinking water. The procedure: For mannoside treatment, bacteria were incubated with 1 mM ZFH56 prior to inoculation. Every 24 h for 3 days, mice were transurethrally inoculated with 1 mM ZFH56. For antibiotic treatment, mice were inoculated with UTI89 and immediately given antibiotics in the drinking water for 3 days. Antibiotics used were trimethoprim-sulfamethoxazole (SXT) at […], respectively. For dual treatment, bacteria were incubated with 1 mM ZFH56 prior to inoculation. Every 24 h for 3 days, mice were transurethrally inoculated with 1 mM ZFH56. Additionally, mice were immediately given antibiotics in the drinking water for 3 days as in the antibiotic only treatment. Urine was collected every day for 13 days. At 2 weeks, mice were sacrificed and bladders were titered.
UTI89 biofilm was grown in LB+/− mannoside for 24 h at 22° C. in PVC plates and quantitated using crystal violet. UTI89 biofilm for confocal microscopy was grown in LB for 24 h at 22° C. on PVC coverslips. Mannoside was then added and biofilm was grown for an additional 16 h. Coverslips were then washed in PBS, fixed in 2% paraformaldehyde and stained with SYTO9 prior to confocal microscopy. For all animal experiments UTI89 or PBC-1 was grown 2×24 h statically in LB at 37° C. and inoculated at a dose of 1×10^7 bacteria in 50 μl. All mice used were female C3H/HeN (Jackson). For the pretreatment studies, bacteria were incubated with mannoside for 20 min prior to inoculation into the mouse. […] For CFU counts, bladders were harvested at 6 hpi and placed in 1 mL PBS. Bladders were then homogenized, diluted and plated on LB. After growth at 37° C. overnight, bacterial counts were determined. LacZ staining and gentamicin protection assays were performed at 6 hpi. […] Water was changed daily with fresh antibiotics. Standard growth curve assays and hemagglutination assays were performed with TMP-SMZ. All statistical analysis performed was a two-tailed Mann-Whitney U test.
Animal infections. Bacteria were grown under type 1 pili-inducing conditions (2×24 h at 37° C. statically in LB). The bacteria were harvested and resuspended to an OD600 of 0.5 in PBS. Eight-week-old C3H/HeN (Harlan) female mice were anesthetized by inhalation of isoflurane and infected via transurethral catheterization with 50 μl of the bacterial suspension, resulting in 1-2×10^7 inoculum. At 6 hpi, mice were sacrificed by cervical dislocation under anesthesia and the bladders were immediately harvested and processed as described below. All animal studies using mice were approved by the Animal Studies Committee of Washington University (Animal Protocol Number 20100002).
Bladder tissue bacterial titer determination. Mannoside ZFH-2056 was administered either IP (5 mg/kg) or orally (100 mg/kg) 30 min prior to inoculation with UTI89. […]

A short description of data set [1]: Mouse urine pharmacokinetics of mannosides (LC-MS). The following applies: in vivo. The procedure:
Pharmacokinetic (PK) studies with ZFH-2056 evaluated in vivo dosing conditions after intraperitoneal (IP) injection or oral (PO) gavage. ZFH-2056 was dosed IP and compound levels in the urine were evaluated at several timepoints by HPLC using mass spectrometry (MS) detection. […] Since oral dosing is the desired route of delivery, we next evaluated the concentration of drug after 100 mg/kg PO of ZFH-2056.
Pharamacokinetic analysis. For intraperitoneal dosing, 50 μl of a 2 mg/ml (5 mg/kg) or 4 mg/ml (10 mg/kg) solution of ZFH-2056 in PBS was injected into the peritoneal cavity of the mouse. For oral dosing, 100 μl of a 20 mg/ml (100 mg/kg) solution of ZFH-2056 in 8% DMSO was inoculated with a gavage needle into the mouse stomach. Urine was collected at 30 min, 1, 2, 3, 4, 6, and 8 h post-treatment. An equal volume of 10 μM internal standard (ZFH-2050) was added to the urine. Mannosides were extracted from the urine by loading on C18 columns (100 mg, Waters), washing with 30% methanol, and eluting with 60% methanol. […] Absolute quantification was achieved by comparison to a calibration curve.
For oral dosing, 100 μl of a 20 mg/ml (100 mg/kg) solution of ZFH-2056 in 8% DMSO was inoculated with a gavage needle into the mouse stomach. Urine was collected at 30 min, 1, 2, 3, 4, 6, and 8 h post-treatment. An equal volume of 10 μM internal standard (ZFH-2050) was added to the urine. Mannosides were extracted from the urine by loading on C18 columns (100 mg, Waters), washing with 30% methanol, and eluting with 60% methanol. […] Absolute quantification was achieved by comparison to a calibration curve.

`CNC(=O)c1cc(C(=O)NC)cc(-c2ccc(O[C@H]3O[C@H](CO)[C@@H](O)[C@H](O)[C@@H]3O)cc2)c1` [ZFH-2056]: the “effect on efficacy of TMP-SMZ killing in vitro” value in the data set with PBC-1 was “not found to increase the efficacy of TMP-SMZ killing”. In addition, the “bladder bacterial CFUs” value in the data set on UTI89 was “significant drop in bacterial load”. In data set [1], the “drug cleared to the urine intact / unchanged” value is recorded as above 95%; the “hydrolysis products (D-mannose and phenol) in urine” value is listed as below 5%. For the same molecule, the level in urine in data set [1] (ip) was at most 740 nM.
